Patent publication US9862693B2, “Compounds and methods of treating cancer” (The Regents of the University of California, priority 2012, dated 2018)
Entries after “also recorded” stand apart in the source; their conditions may differ. Structures can show the parent of a compound that is named as a salt.

Tests used:
[1] = system: MCF7; assay: MTS cell number assay (CellTiter 96), ER+ breast cancer cells; assay type: cell-based; conditions: Homo sapiens, 1 mM, 72 hours, MTS method, read-out: ER+ BC MCF7, cell numbers as percentage of vehicle treated controls
Protocol: FIG. 1. Metformin analogues inhibit growth/survival of ER+ MCF7 breast cancer cells. MCF7 cells were cultured in medium containing different concentrations of metformin and analogues (0.1, 1 and 5 mM). After 3 days, the percentage of surviving cells relative to controls, defined as 100% survival, was determined by the MTS assay. Data represents three independent experiments.
Compounds described herein (e.g. metformin derivatives and/or analogues) were tested in human MCF-7 breast cancer cells, a standard ERalpha-positive model of breast malignancy (FIG. 1), and in four different cell lines classified as TNBC, including MDA-MB-231, HCC1937, HCC38 and HCC1806 (FIGS. 2A-2D). […] Experiments were also performed in: 1) a non-small cell lung cancer cell line that is known to be resistant to standard chemotherapy (A549); and 2) a melanoma-like cell model (MDA-MB-435). To find if analogues have effects on normal cells compounds were tested in two different types of cells, human umbilical vein endothelial cells (HUVEC) and human mammary epithelial cells (HMEC). The effects of metformin (MET) were compared with compounds JD001-JD009.
(§1) Cells were incubated in the presence of vehicle, metformin or metformin analogues for 72 hours in their respective media. After treatment cell numbers were determined with the MTS method using the CellTiter 96 Aqueous Non-Radioactive Cell Proliferation Assay (Promega). Numbers express percentage of vehicle treated controls at 1 mM concentration metformin or metformin analogues (JD001-JD009). TNBC: Triple Negative Breast Cancer Cells, ER+BC: Estrogen receptor positive breast cancer.

[2] = system: PANC-1 cells; assay: Pancreatic cancer cell proliferation in vitro (cell counts); assay type: cell-based, human; conditions: 0.01, 0.1 and 1 mM, 72 hrs, 1% FBS, P<0.01, hydrochloride
Protocol: FIG. 5. […] Cells were counted and plated. At 24 hrs after plating, cells were treated with metformin and JD003 at 0.01 mM, 0.1 mM, and 1 mM concentrations using medium with 1% FBS. After 72 hrs, cell proliferation was quantitated based on cell counts. Experiments were done 3-times, with results expressed as percent control (mean±SE).
We hypothesize that metformin analogs can be prepared with enhanced anticancer activity and minimal non-target toxicity. […] Human pancreatic cancer cells PANC-1, were grown in DMEM with 2 mM glutamine, 1 mM sodium pyruvate, 100 units/mL penicillin, 100 μg/mL streptomycin and 10% FBS at 37 C in a humidified atmosphere with 10% CO2. Then, effects of treatment with metformin or analog JD003 on cell proliferation in vitro were tested. […] To find if analogs may have deleterious effects on normal human cells, we compared the cellular activity of metformin with that of analogs JD003 and JD004 using a pair of human breast epithelial cells. These included human mammary epithelial cells (HMEC) and MCF-7 tumor cells (MCF-7). […] In contrast, minimal antiproliferative effects are detected in nonmalignant human epithelial cells.

[3] = system: HMEC; assay: MTS cell number assay (CellTiter 96), normal cells; assay type: cell-based; conditions: Homo sapiens, 1 mM, 72 hours, MTS method, read-out: Biodata Normal HMEC, cell numbers as percentage of vehicle treated controls
Protocol: (§2) FIGS. 4A-4B. Effects of metformin and metformin analogues on normal cells. HMEC (FIG. 4A) and HUVEC (FIG. 4B) cells were plated in special media. After 24 hours, cells were treated with increasing concentrations of metformin and analogues JD001-JD009 (0.1, 1 and 5 mM). After 3 days, MTS assay was performed. Survival is expressed as percentage of vehicle treated control. Data represents at least two experiments.
(§3) The effects of compounds described herein (including embodiments) (e.g. metformin analogues) were determined on two types of normal nonmalignant human cells, human umbilical vein endothelial cells (HUVEC) and human mammary epithelial cells (HMEC). There were no significant biologic effects noted on exposure to the metformin analogues.
as §1

[4] = system: HUVEC; assay: MTS cell number assay (CellTiter 96), normal cells; assay type: cell-based; conditions: Homo sapiens, 1 mM, 72 hours, MTS method, read-out: Biodata Normal HUVEC, cell numbers as percentage of vehicle treated controls
Protocol: as §2, §3, §1

[5] = system: MDA-MB-231; assay: MTS cell number assay (CellTiter 96), TNBC cells; assay type: cell-based; conditions: Homo sapiens, 1 mM, 72 hours, MTS method, read-out: Biodata TNBC MDA-MB-231, cell numbers as percentage of vehicle treated controls
Protocol: (§4) FIGS. 2A-2D. Metformin analogues inhibit growth/survival of triple negative breast cancer cells. MDA-MB-231 (FIG. 2A), HCC38 (FIG. 2B), HCC1937 (FIG. 2C) and HCC1806 (FIG. 2D) cells were cultured in medium containing 1% fetal bovine serum and increasing concentrations of metformin and analogues JD001-JD009 (0.1, 1 and 5 mM). After 3 days, MTS assay was performed. The percentage of surviving cells relative to controls, defined as 100% survival, was determined by the MTS assay.
as §1

[6] = system: HCC1937; assay: MTS cell number assay (CellTiter 96), TNBC cells; assay type: cell-based; conditions: 1 mM, 72 hours, MTS method
Protocol: as §4, §1

[7] = system: MDA-MB-435; assay: MTS cell number assay (CellTiter 96), melanoma cells; assay type: cell-based; conditions: 1 mM, 72 hours, MTS method
Protocol: (§5) FIGS. 3A-3B. Metformin analogues inhibit survival of non-small cell lung cancer (NSCLC) (FIG. 3A) and melanoma cell lines (FIG. 3B). A549 (NSCLC) and MDA-MB-435 (melanoma) cells were cultured in medium containing 1% fetal bovine serum and increasing concentrations of metformin (MET) and analogues JD001-JD007 (0.1, 1 and 5 mM). After 3 days, MTS assay was performed. Survival is expressed as percentage of control defined at 100%.
as §1

[8] = system: MCF-7 cells; assay: Cell proliferation ELISA, BrdU colorimetric kit; assay type: cell-based, human; conditions: 0.1 mM and 1 mM, BrdU incorporation, 1% FBS, P<0.01; hydrochloride
Protocol: FIGS. 6A-6C. […] Proliferation was assessed using cell proliferation ELISA, BrdU colorimetric kit (Roche). Cells were counted using a hemocytometer and plated. After 24 hrs, cells were treated with metformin and analogs JD003 and JD004 at 0.1 mM and 1 mM doses using phenol-red free medium with 1% FBS. After 48 hr, BrDU labeling solution was added and incubated for 24 h. Proliferation was assessed using BrDU incorporation by ELISA during DNA synthesis in proliferating cells. Data shown as % control (mean±SE) (n=3 experiments).
We hypothesize that metformin analogs can be prepared with enhanced anticancer activity and minimal non-target toxicity. […] Human pancreatic cancer cells PANC-1, were grown in DMEM with 2 mM glutamine, 1 mM sodium pyruvate, 100 units/mL penicillin, 100 μg/mL streptomycin and 10% FBS at 37 C in a humidified atmosphere with 10% CO2. Then, effects of treatment with metformin or analog JD003 on cell proliferation in vitro were tested. […] In contrast, minimal antiproliferative effects are detected in nonmalignant human epithelial cells. […]
Cell proliferation screening assays were done using cell proliferation ELISA, BrdU colorimetric kit (Roche). Cells were counted using a hemocytometer and plated in 96-well plates. […] Cell proliferation were quantitated based on measures of BrDU incorporation (by ELISA) during DNA synthesis in proliferating cells. […] Results were expressed as mean±SE. […]

[9] = system: A549; assay: MTS cell number assay (CellTiter 96), NSCLC cells; assay type: cell-based; conditions: Homo sapiens, 1 mM, 72 hours, MTS method, read-out: Biodata extra A549, cell numbers as percentage of vehicle treated controls
Protocol: as §5, §1

[10] = system: HCC1806; assay: MTS cell number assay (CellTiter 96), TNBC cells; assay type: cell-based; conditions: 1 mM, 72 hours, MTS method
Protocol: as §4, §1

[11] = system: HCC38; assay: MTS cell number assay (CellTiter 96), TNBC cells; assay type: cell-based; conditions: 1 mM, 72 hours, MTS method
Protocol: as §4, §1

[12] = system: MIAPaCa-2 and PANC-1 cells xenografted in nude mice; conditions: reported; cited from earlier work
[13] = system: triple-negative breast cancer cell lines; conditions: literature refs (2,3); cited from earlier work

Structure (SMILES) | viability at 1000 µM [1] [%] | Inhibition of pancreatic cancer cell proliferation compared with metformin [2] | viability at 1000 µM [3] [%] | viability at 1000 µM [4] [%] | viability at 1000 µM [5] [%] | Biodata TNBC HCC1937, cell numbers as percentage of vehicle treated controls [6] | Biodata extra MDA-MB-435, cell numbers as percentage of vehicle treated controls [7] | Blocking proliferation of MCF-7 cells compared with metformin [8] | viability at 1000 µM [9] [%] | Biodata TNBC HCC1806, cell numbers as percentage of vehicle treated controls [10] | Biodata TNBC HCC38, cell numbers as percentage of vehicle treated controls [11] | Growth of xenografted pancreatic cancer cells [12] | Antitumor activity against triple-negative breast cancer cell lines [13]
N=C(NC(=N)N1CCOCC1)N1CCOCC1 [JD003, N-(Imino(morpholino)methyl)morpholine-4-carboximidamide hydrochloride] | 61.3 | significantly greater inhibition of pancreatic cancer cell proliferation in vitro than parent compound metformin; also recorded: shows promise as a congener with more potent antitumor activity | 107 | 86.7 | 93.2 | 37.8 percentage of vehicle treated controls | 50.4 percentage of vehicle treated controls | more effective in blocking proliferation of MCF-7 cells; also recorded: enhanced antiproliferative activity in breast cancer cells as compared to metformin | 98 | – | – | – | –
CN(C)C(=N)NC(=N)N [Metformin (000), 1,1-dimethyl-biguanide hydrochloride, reference compound] | 105 | – | 99.8 | 83.9 | 110 | 92.9 percentage of vehicle treated controls | 77.7 percentage of vehicle treated controls | – | 72.2 | 90.2 percentage of vehicle treated controls | 92.5 percentage of vehicle treated controls | significantly decrease growth | only at high millimolar concentrations
